Assay: Inhibition of quinpirole stimulation of mitogenesis at human dopamine D2 receptors expressed in Chinese hamster ovary cells

EC50 [nM]	SMILES
61.8	COc1ccc(C(=O)NC/C=C/CN2CCN(c3cccc(Cl)c3Cl)CC2)cc1 [N-{4-[4-(2,3-Dichloro-phenyl)-piperazin-1-yl]-but-2-enyl}-4-methoxy-benzamide]
13.8	O=C(NC/C=C/CN1CCN(c2cccc(Cl)c2Cl)CC1)c1ccc([N+](=O)[O-])cc1 [N-{(E)-4-[4-(2,3-Dichloro-phenyl)-piperazin-1-yl]-but-2-enyl}-4-nitro-benzamide]
162	O=C(NC/C=C/CN1CCN(c2cccc(Cl)c2Cl)CC1)c1ccc(I)cc1 [N-{4-[4-(2,3-Dichloro-phenyl)-piperazin-1-yl]-but-2-enyl}-4-iodo-benzamide]

From BindingDB's records for doi:10.1021/jm049465g (National Institute On Drug Abuse-Intramural Research Program, 2005)
